Results from patent US20220048915A1 (SHANGHAI PHARMACEUTICALS HOLDING CO., LTD., priority 2018, published 2022).
Where two headings read alike, the source gives them in different places.

Key:
Assay in all cases: In vitro inhibition of p38 kinase (LANCE Ultra TR-FRET)
Assay type in all cases: biochemical
p38β = p38β (Homo sapiens, UniProt Q15759)
p38γ = biological target: T1, p38γ (Homo sapiens, UniProt P53778)
T1 sequence (P53778 1-367): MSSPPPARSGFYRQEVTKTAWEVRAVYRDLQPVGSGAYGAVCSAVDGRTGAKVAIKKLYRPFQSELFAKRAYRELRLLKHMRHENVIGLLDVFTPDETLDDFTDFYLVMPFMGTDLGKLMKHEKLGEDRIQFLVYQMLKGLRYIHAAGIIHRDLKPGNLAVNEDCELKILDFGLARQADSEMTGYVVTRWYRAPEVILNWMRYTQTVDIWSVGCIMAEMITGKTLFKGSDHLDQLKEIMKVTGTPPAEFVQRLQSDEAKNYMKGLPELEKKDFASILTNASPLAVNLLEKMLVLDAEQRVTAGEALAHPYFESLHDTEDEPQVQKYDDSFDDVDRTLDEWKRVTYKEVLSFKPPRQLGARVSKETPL
Description: 10 mM of the storage solution of the test compound was taken and placed in a 96-well compound plate, and using DMSO for the compound at an initial concentration of 100×, which was then used as the first concentration and then carried out a 3-fold gradient dilution with DMSO for a total of 10 concentrations. After that, 1 μL of gradient dilutions were added to 19 μL of 1× reaction buffer to prepare 5× compound for later use. […] To the compound-free control well was added 2 μL of the following liquid: 19 μL of 1× reaction buffer with addition of 1 μL of DMSO. To the Min control well was added 2 μL of 250 mM EDTA.
1× of LANCE® Detection value Buffer was used to prepare a 2×Antibody for use, and the amount was 5 μL per well, at the same time 10 mM EDTA was prepared for later use. After the enzyme reaction was carried out for 30 minutes, 5 μL 10 mM EDTA was added to the 384-well plate and the reaction was carried out at room temperature for 5 minutes. Afterwards, 5 μL LANCE® Ultra Europium-anti-phospho-eIF4E-binding protein 1 (Thr37/46) was added to the 384-well plate and the reaction was carried out at room temperature for one hour.

p38α = p38α (Homo sapiens, UniProt Q16539)
Chain of p38α (Q16539 whole entry): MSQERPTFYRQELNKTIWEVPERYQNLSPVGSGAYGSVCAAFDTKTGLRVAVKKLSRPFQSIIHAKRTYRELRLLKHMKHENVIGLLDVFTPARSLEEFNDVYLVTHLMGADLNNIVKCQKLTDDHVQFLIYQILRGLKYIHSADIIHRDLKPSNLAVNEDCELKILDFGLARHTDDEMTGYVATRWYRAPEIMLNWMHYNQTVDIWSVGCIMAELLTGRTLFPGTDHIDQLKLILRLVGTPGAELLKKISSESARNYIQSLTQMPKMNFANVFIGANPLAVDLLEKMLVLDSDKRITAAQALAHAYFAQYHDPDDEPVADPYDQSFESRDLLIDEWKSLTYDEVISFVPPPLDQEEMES

[1] = read-out: Kinase in vitro IC50(nM) p38β
[2] = read-out: Kinase in vitro IC50(nM) p38γ
[3] = read-out: Kinase in vitro IC50(nM) p38α

Chain of p38β (Q15759 whole entry): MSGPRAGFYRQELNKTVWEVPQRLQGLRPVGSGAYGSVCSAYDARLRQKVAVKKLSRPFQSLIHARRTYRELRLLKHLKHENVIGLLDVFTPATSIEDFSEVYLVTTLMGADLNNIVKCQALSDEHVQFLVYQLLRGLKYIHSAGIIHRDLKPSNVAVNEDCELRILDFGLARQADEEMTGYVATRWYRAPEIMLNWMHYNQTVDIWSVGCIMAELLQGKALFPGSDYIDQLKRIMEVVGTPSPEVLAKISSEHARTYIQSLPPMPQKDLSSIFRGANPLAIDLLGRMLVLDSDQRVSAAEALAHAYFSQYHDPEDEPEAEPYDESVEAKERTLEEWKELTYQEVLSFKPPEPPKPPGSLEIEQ

Row | Structure (SMILES) | IC50 (p38β; [1]) [nM] | IC50 (p38γ; [2]) [nM] | IC50 (p38α; [3]) [nM] | IC50 (p38β) [nM] | IC50 (p38γ) [nM] | IC50 (p38α) [nM]
1 | COC(=O)c1ccc(OC)c(-c2c(=O)ncn3nc(Oc4ccc(F)cc4F)ccc23)c1 [Compound I-55, methyl 3-[2-(2,4-difluorophenoxy)-6-oxo-pyrimido[1,6-b]pyridazin-5-yl]-4-methoxybenzoate] | 117 | > 3330 | 17.7 | – | – | –
2 | O=c1ncn2nc(Oc3ccc(F)cc3F)ccc2c1-c1ccc(Cl)cc1Cl [Compound I-56, 5-(2,4-dichlorophenyl)-2-(2,4-difluorophenoxy)-6H-pyrimido[1,6-b]pyridazin-6-one] | 479 | > 3330 | 19.6 | – | – | –
3 | O=c1ncn2nc(OC3CC=CC3)ccc2c1-c1c(Cl)cccc1Cl [Compound I-38, 2-(cyclopent-3-en-1-yloxy)-5-(2,6-dichlorophenyl)-6H-pyrimido[1,6-b]pyridazin-6-one] | 2160 | > 3330 | 414 | – | – | –
4 | O=c1ncn2nc(OCC(F)F)ccc2c1-c1c(Cl)cccc1Cl [Compound I-8, 5-(2,6-dichlorophenyl)-2-(2,2-difluoroethoxy)-6H-pyrimido[1,6-b]pyridazin-6-one] | > 3330 | > 3330 | > 3330 | – | – | –
5 | O=c1ncn2nc(OC3CCOC3)ccc2c1-c1c(Cl)cccc1Cl (stereo not drawn) [Compound I-3, 5-(2,6-dichlorophenyl)-2-((tetrahydrofuran-3-yl)oxy)-6H-pyrimido[1,6-b]pyridazin-6-one] | > 3330 | > 3330 | > 3330 | – | – | –
6 | O=c1ncn2nc(OCC(F)(F)F)ccc2c1-c1c(Cl)cccc1Cl [Compound I-13, 5-(2,6-dichlorophenyl)-2-(2,2,2-trifluoroethoxy)-6H-pyrimido[1,6-b]pyridazin-6-one] | > 3330 | > 3330 | > 3330 | – | – | –
7 | O=c1ncn2nc(Oc3ccc(F)cc3F)ccc2c1C1=CCCCC1 [Compound I-44, 5-(cyclohex-1-en-1-yl)-2-(2,4-difluorophenoxy)-6H-pyrimido[1,6-b]pyridazin-6-one] | 635 | > 3330 | 31 | – | – | –
8 | O=c1ncn2nc(Oc3cncc(F)c3)ccc2c1-c1c(Cl)cccc1Cl [Compound I-24, 5-(2,6-dichlorophenyl)-2-((5-fluoropyridin-3-yl)oxy)-6H-pyrimido[1,6-b]pyridazin-6-one] | > 3330 | > 3330 | 1980 | – | – | –
9 | CCOc1ccc2c(-c3c(Cl)cccc3Cl)c(=O)ncn2n1 [Compound I-7, 5-(2,6-dichlorophenyl)-2-ethoxy-6H-pyrimido[1,6-b]pyridazin-6-one] | > 3330 | > 3330 | 1680 | – | – | –
10 | Cc1ccc(Oc2ccc3c(-c4c(Cl)cccc4Cl)c(=O)ncn3n2)cc1F [Compound I-11, 5-(2,6-dichlorophenyl)-2-(3-fluoro-4-methylphenoxy)-6H-pyrimido[1,6-b]pyridazin-6-one] | 1220 | > 3330 | 137 | – | – | –
11 | O=c1ncn2nc(Oc3ccc(F)cc3F)c(N3CCOCC3)cc2c1-c1c(Cl)cccc1Cl [Compound I-61, 5-(2,6-dichlorophenyl)-2-(2,4-difluorophenoxy)-3-morpholinyl-6H-pyrimido[1,6-b]pyridazin-6-one] | 32.7 | > 3330 | 11.7 | – | – | –
12 | O=c1ncn2nc(Oc3ccc(F)cc3F)ccc2c1-c1c(F)cccc1F [Compound I-49, 2-(2,4-difluorophenoxy)-5-(2,6-difluorophenyl)-6H-pyrimido[1,6-b]pyridazin-6-one] | 213 | > 3330 | 14.1 | – | – | –
13 | O=c1ncn2nc(Oc3ccc(Cl)cc3)ccc2c1-c1c(Cl)cccc1Cl [Compound I-33] | 470 | > 3330 | 24 | – | – | –
14 | O=c1ncn2nc(NC3CC(F)(F)C3)ccc2c1-c1c(Cl)cccc1Cl [Compound I-14, 5-(2,6-dichlorophenyl)-2-((3,3-difluorocyclobutyl)amino)-6H-pyrimido[1,6-b]pyridazin-6-one] | > 3330 | > 3330 | 1350 | – | – | –
15 | O=c1ncn2nc(OC3CCCC=C3Cl)ccc2c1-c1c(Cl)cccc1Cl (stereo not drawn) [Compound I-42, 2-((2-chlorocyclohex-2-en-1-yl)oxy)-5-(2,6-dichlorophenyl)-6H-pyrimido[1,6-b]pyridazin-6-one] | 686 | > 3330 | 228 | – | – | –
16 | CNC(=O)c1ccc(Cl)c(-c2c(=O)ncn3nc(Oc4ccc(F)cc4F)ccc23)c1 [Compound I-51, 4-chloro-3-(2-(2,4-difluorophenoxy)-6-oxo-6H-pyrimido[1,6-b]pyridazin-5-yl)-N-methylbenzamide] | 256 | > 3330 | 17.5 | – | – | –
17 | O=c1ncn2nc(OC3C=CCCC3)ccc2c1-c1c(Cl)cccc1Cl (stereo not drawn) [Compound I-37, 2-(cyclohex-2-en-1-yloxy)-5-(2,6-dichlorophenyl)-6H-pyrimido[1,6-b]pyridazin-6-one] | 2830 | > 3330 | 503 | – | – | –
18 | CC(Oc1ccc2c(-c3c(Cl)cccc3Cl)c(=O)ncn2n1)c1ccc(F)cc1F (stereo not drawn) [Compound I-41, 5-(2,6-dichlorophenyl)-2-(1-(2,4-difluorophenyl)ethoxy)-6H-pyrimido[1,6-b]pyridazin-6-one] | > 3330 | > 3330 | > 3330 | – | – | –
19 | N#Cc1ccc(Oc2ccc3c(-c4c(Cl)cccc4Cl)c(=O)ncn3n2)cc1 [Compound I-26, 4-((5-(2,6-dichlorophenyl)-6-oxo-6H-pyrimido[1,6-b]pyridazin-2-yl)oxy)benzonitrile] | > 3330 | > 3330 | > 3330 | – | – | –
20 | O=c1ncn2nc(Oc3cccc(F)c3)ccc2c1-c1c(Cl)cccc1Cl [Compound I-25, 5-(2,6-dichlorophenyl)-2-(3-fluorophenoxy)-6H-pyrimido[1,6-b]pyridazin-6-one] | 1430 | > 3330 | 151 | – | – | –
21 | O=c1ncn2nc(OC3CC(F)(F)C3)ccc2c1-c1c(Cl)cccc1Cl [Compound I-1, 5-(2,6-dichlorophenyl)-2-(3,3-difluorocyclobutoxy)-6H-pyrimido[1,6-b]pyridazin-6-one] | – | – | – | > 3330 | > 3330 | > 3330
22 | Cc1cc(F)ccc1Oc1ccc2c(-c3c(Cl)cccc3Cl)c(=O)ncn2n1 [Compound I-28, 5-(2,6-dichlorophenyl)-2-(4-fluoro-2-methylphenoxy)-6H-pyrimido[1,6-b]pyridazin-6-one] | > 3330 | > 3330 | 38.8 | – | – | –
23 | O=c1ncn2nc(OC3CCOCC3)ccc2c1-c1c(Cl)cccc1Cl [Compound I-2, 5-(2,6-dichlorophenyl)-2-((tetrahydro-2H-pyran-4-yl)oxy)-6H-pyrimido[1,6-b]pyridazin-6-one] | > 3330 | > 3330 | 2690 | – | – | –
24 | O=c1ncn2nc(Oc3ccc(F)cc3F)ccc2c1-c1c(F)cc(F)cc1F [Compound I-57, 5-(2,4,6-trifluorophenyl)-2-(2,4-difluorophenoxy)-6H-pyrimido[1,6-b]pyridazin-6-one] | 614 | > 3330 | 22.7 | – | – | –
25 | COc1ccc(Oc2ccc3c(-c4c(Cl)cccc4Cl)c(=O)ncn3n2)c(Cl)c1 [Compound I-9, 2-(2-chloro-4-methoxyphenoxy)-5-(2,6-dichlorophenyl)-6H-pyrimido[1,6-b]pyridazin-6-one] | 301 | > 3330 | 112 | – | – | –
26 | Cc1cc(Cl)ccc1Oc1ccc2c(-c3c(Cl)cccc3Cl)c(=O)ncn2n1 [Compound I-34, 2-(4-chloro-2-methylphenoxy)-5-(2,6-dichlorophenyl)-6H-pyrimido[1,6-b]pyridazin-6-one] | 389 | > 3330 | 49.8 | – | – | –
27 | O=c1ncn2nc(Oc3ccc(F)cc3F)c(-c3ccncc3)cc2c1-c1c(Cl)cccc1Cl [Compound I-59, 5-(2,6-dichlorophenyl)-2-(2,4-difluorophenoxy)-3-(pyridin-4-yl)-6H-pyrimido[1,6-b]pyridazin-6-one] | 1220 | > 3330 | 81.3 | – | – | –
28 | O=c1ncn2nc(Oc3ccc(F)cc3F)ccc2c1-c1cccc(Cl)c1Cl [Compound I-52, 5-(2,3-dichlorophenyl)-2-(2,4-difluorophenoxy)-6H-pyrimido[1,6-b]pyridazin-6-one] | 947 | > 3330 | 54.2 | – | – | –
29 | Cc1cccc(C)c1-c1c(=O)ncn2nc(Oc3ccc(F)cc3F)ccc12 [Compound I-45, 2-(2,4-difluorophenoxy)-5-(2,6-dimethylphenyl)-6H-pyrimido[1,6-b]pyridazin-6-one] | 643 | > 3330 | 35.4 | – | – | –
